Values of other authors, collected in patent US11090329B2, “Method and composition for treating gastro-esophageal disorders” (priority 2012, dated 2021).

Test system: esophagitis caused by chemo-radiotherapy
Details: patients with advanced stage III non-small-cell lung cancer

In the case of `O=C(O[C@@H]1Cc2c(O)cc(O)cc2O[C@@H]1c1cc(O)c(O)c(O)c1)c1cc(O)c(O)c(O)c1` [EGCG, epigallocatechin gallate A], the “esophagitis caused by chemo-radiotherapy” value is listed as “reduce esophagitis”.
